Molecular target: T1, RORc ligand binding domain (Homo sapiens, UniProt P51449)
T1 construct: host or cells: E. coli
T1 sequence (P51449 269-508 limits assumed): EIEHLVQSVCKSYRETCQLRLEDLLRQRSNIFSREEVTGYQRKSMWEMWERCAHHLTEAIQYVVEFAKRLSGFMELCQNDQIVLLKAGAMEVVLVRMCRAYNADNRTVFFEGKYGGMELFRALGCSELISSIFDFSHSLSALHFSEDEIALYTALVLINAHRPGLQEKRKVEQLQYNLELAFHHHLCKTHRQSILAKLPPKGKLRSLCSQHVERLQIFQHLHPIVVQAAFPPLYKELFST
Experiment: In vitro RORc ligand binding assay (25-[3H]hydroxycholesterol displacement, filter binding)
Protocol: This assay was used to determine a compound's potency in inhibiting activity of RORc by determining, Kiapp, IC50, or percent inhibition values.
On day of the assay, 100 uL of 0.05% CHAPS (in deionized H2O) was added to all wells of the GFB Unifilter plate and allowed soak for 1 h. A wash buffer of 50 mM HEPES (pH 7.4), 150 mM NaCl, and 5 mM MgCl2 was prepared to wash the filter plate. To prepare an assay buffer, BSA was added to the wash buffer to reach 0.01% and DTT was added to reach 1 mM.
The 20× compound stocks were diluted in DMSO with Assay Buffer 4-fold to reach 5× the final test concentration in 25% DMSO (10 uL compound+30 uL Assay Buffer). Solutions were mixed by aspiration several times with a pipette set on 50 uL volume. For the assay, 10 uL of 5× compound stock solutions in 25% DMSO were added to the assay plate in duplicate.
For two point screening, 10 mM stock compound solutions were diluted in DMSO to obtain 200 uM (20× the high test concentration) and then diluted 10-fold further to reach 20 uM (20× the low test concentration). The 20× stocks were diluted 4-fold with Assay Buffer (10 uL compound+30 uL Assay Buffer) to reach 5× the test concentrations (50 uM and 5 uM) and 10 uL were added to two assay plates for the duplicate wells. With each concentration tested on 2 plates, each set of 80 compounds used 4 assay plates (1 uM and 10 uM, with n=2).
For 25-hydroxycholesterol in 25% DMSO/75% Assay Buffer; 10 uL per well was used for NSB samples. Wells for Total Binding and No Receptor sample determination contained 10 uL of 25% DMSO/75% Assay Buffer per well.
Add 20 uL to all wells to reach 6 nM final concentration in the assay.
Stock receptor solution was diluted in assay buffer to obtain 1.5 ug/mL in Assay Buffer. 20 uL was added to all wells. For No Receptor samples, 20 uL Assay Buffer was substituted for receptor solution.
Assay plates were 96-well polypropylene V-bottom plates. 10 uL of 5× compound in 25% DMSO/75% Assay Buffer was added to Test wells. 10 uL of 25% DMSO/75% Assay Buffer was added to Total Binding or No Receptor wells. 10 uL of 5 uM 25-hydroxycholesterol in 25% DMSO/75% Assay Buffer was added to NSB wells. […] 20 uL of 1.5 ug/mL RORc receptor was added to wells (or 40 uL Assay Buffer to No R wells). Following addition to the wells, the plates were incubated 3 h at 25° C.
Using a Packard Filtermate Harvester, the filter plate were washed 4 times following transfer of the incubated samples. Plates were dry-filtered completely (2 h at 50° C. or overnight at room temperature). 50 uL Microscint 0 was added to all wells and read on Topcount protocol Inverted.

SMILES | IC50
CC1(C)[C@H]2CC[C@]1(c1cccc3nccn13)c1nnc(-c3c(F)cccc3F)cc12 [Compound 107, (5R,8S)-3-(2,6-difluorophenyl)-8-(imidazo[1,2-a]pyridin-5-yl)-9,9-dimethyl-5,6,7,8-tetrahydro-5,8-methanocinnoline] | 91.8 nM
CC1(C)[C@H]2CC[C@]1([C@H]1CN(CC(F)F)CCO1)c1nnc(-c3c(F)cccc3F)cc12 [Compound 80, (S)-4-(2,2-difluoroethyl)-2-((5R,8R)-3-(2,6-difluorophenyl)-9,9-dimethyl-5,6,7,8-tetrahydro-5,8-methanocinnolin-8-yl)morpholine] | 674 nM
CN1CCNC[C@H]1[C@@]12CC[C@@H](c3cc(-c4c(F)cccc4F)nnc31)C2(C)C [Compound 178, 5-(2,6-difluorophenyl)-11,11-dimethyl-1-(1-methylpiperazin-2-yl)-3,4-diazatricyclo[6.2.1.02,7]undeca-2,4,6-triene] | 13 nM
CC1(C)[C@H]2CC[C@]1([C@@H]1CN(C3=NC(CO)CO3)CCO1)c1nnc(-c3c(F)cccc3F)cc12 (stereo in doubt) [Compound 140, [2-[2-[5-(2,6-difluorophenyl)-11,11-dimethyl-3,4-diazatricyclo[6.2.1.02,7]undeca-2,4,6-trien-1-yl]morpholin-4-yl]-4,5-dihydrooxazol-4-yl]methanol] | 7.6 nM
CC[C@@H](O[C@@]12CC[C@@H](c3cc(-c4c(F)cccc4F)nnc31)C2(C)C)C(=O)NCc1n[nH]c(=O)[nH]1 [Compound 56, (R)-2-(((5S,8R)-3-(2,6-difluorophenyl)-9,9-dimethyl-5,6,7,8-tetrahydro-5,8-methanocinnolin-8-yl)oxy)-N-((5-oxo-4,5-dihydro-1H-1,2,4-triazol-3-yl)methyl)butanamide] | 95.2 nM
CC1(C)[C@H]2CC[C@]1([C@H]1CCCN(C(=O)c3cc[nH]n3)C1)c1nnc(-c3c(F)cccc3F)cc12 [Compound 135, [3-[5-(2,6-difluorophenyl)-11,11-dimethyl-3,4-diazatricyclo[6.2.1.02,7]undeca-2,4,6-trien-1-yl]-1-piperidyl]-(1H-pyrazol-3-yl)methanone] | 6.7 nM
Cc1coc(N2CCO[C@@H]([C@@]34CC[C@@H](c5cc(-c6c(F)cccc6F)nnc53)C4(C)C)C2)n1 [Compound 145, 2-[5-(2,6-difluorophenyl)-11,11-dimethyl-3,4-diazatricyclo[6.2.1.02,7]undeca-2,4,6-trien-1-yl]-4-(4-methyloxazol-2-yl)morpholine] | 18 nM
CC1(C)[C@H]2CC[C@]1(OCC(N)=O)c1nnc(-c3c(F)cccc3F)cc12 [Compound 47, 2-(((5S,8R)-3-(2,6-difluorophenyl)-9,9-dimethyl-5,6,7,8-tetrahydro-5,8-methanocinnolin-8-yl)oxy)acetamide] | 118 nM
CC1(C)[C@H]2CC[C@]1(c1ccn3ccnc3n1)c1nnc(-c3c(F)cccc3F)cc12 [Compound 106] | 102 nM
CC1(C)[C@H]2CC[C@]1(C1CCC(=O)NC1)c1nnc(-c3c(F)cccc3F)cc12 (some centres unmarked) [Compound 116, 5-[5-(2,6-difluorophenyl)-11,11-dimethyl-3,4-diazatricyclo[6.2.1.02,7]undeca-2,4,6-trien-1-yl]piperidin-2-one] | 74 nM
CCNC(=O)N1CCC[C@H]([C@@]23CC[C@@H](c4cc(-c5c(F)cccc5F)nnc42)C3(C)C)C1 [Compound 136, 3-[5-(2,6-difluorophenyl)-11,11-dimethyl-3,4-diazatricyclo[6.2.1.02,7]undeca-2,4,6-trien-1-yl]-N-ethyl-piperidine-1-carboxamide] | 29 nM
CC[C@@H](O[C@@]12CC[C@@H](c3cc(-c4c(F)cccc4F)nnc31)C2(C)C)c1nnc(CO)o1 [Compound 32, (5-((R)-1-(((5S,8R)-3-(2,6-difluorophenyl)-9,9-dimethyl-5,6,7,8-tetrahydro-5,8-methanocinnolin-8-yl)oxy)propyl)-1,3,4-oxadiazol-2-yl)methanol] | 5.7 nM
CC(=O)N1CCN(C)[C@H]([C@@]23CC[C@@H](c4cc(-c5c(F)cccc5F)nnc42)C3(C)C)C1 [Compound 177, 1-[3-[5-(2,6-difluorophenyl)-11,11-dimethyl-3,4-diazatricyclo[6.2.1.02,7]undeca-2,4,6-trien-1-yl]-4-methyl-piperazin-1-yl]ethanone] | 15 nM
CC[C@@H](O[C@@]12CC[C@@H](c3cc(-c4c(F)cccc4F)nnc31)C2(C)C)C(=O)NCC(=O)N(C)C [Compound 104, (R)-2-(((5S,8R)-3-(2,6-difluorophenyl)-9,9-dimethyl-5,6,7,8-tetrahydro-5,8-methanocinnolin-8-yl)oxy)-N-(2-(dimethylamino)-2-oxoethyl)butanamide] | 82.9 nM
CNC(=O)c1cnc(O[C@@]23CC[C@@H](c4cc(-c5c(F)cccc5F)nnc42)C3(C)C)cn1 [Compound 9, 5-(((5S,8R)-3-(2,6-difluorophenyl)-9,9-dimethyl-5,6,7,8-tetrahydro-5,8-methanocinnolin-8-yl)oxy)-N-methylpyrazine-2-carboxamide] | 325 nM
CC(=O)N1CCC[C@H]([C@@]23CC[C@@H](c4cc(-c5c(F)cccc5F)nnc42)C3(C)C)C1 [Compound 98, 1-((R)-3-((5R,8R)-3-(2,6-difluorophenyl)-9,9-dimethyl-5,6,7,8-tetrahydro-5,8-methanocinnolin-8-yl)piperidin-1-yl)ethanone] | 139 nM
CC1(C)[C@H]2CC[C@]1([C@H]1CCCN(C(N)=O)C1)c1nnc(-c3c(F)cccc3F)cc12 [Compound 120, 3-[5-(2,6-difluorophenyl)-11,11-dimethyl-3,4-diazatricyclo[6.2.1.02,7]undeca-2,4,6-trien-1-yl]piperidine-1-carboxamide] | 4.9 nM
CCC[C@@H](O[C@@]12CC[C@@H](c3cc(-c4c(F)cccc4F)nnc31)C2(C)C)C(N)=O [Compound 49, (R)-2-(((5S,8R)-3-(2,6-difluorophenyl)-9,9-dimethyl-5,6,7,8-tetrahydro-5,8-methanocinnolin-8-yl)oxy)pentanamide] | 15.4 nM
Cc1n[nH]c(C(=O)N2CCC[C@H]([C@@]34CC[C@@H](c5cc(-c6c(F)cccc6F)nnc53)C4(C)C)C2)n1 [Compound 129, [3-[5-(2,6-difluorophenyl)-11,11-dimethyl-3,4-diazatricyclo[6.2.1.02,7]undeca-2,4,6-trien-1-yl]-1-piperidyl]-(3-methyl-1H-1,2,4-triazol-5-yl)methanone] | 83 nM
CC[C@@H](O[C@@]12CC[C@@H](c3cc(-c4c(F)cccc4F)nnc31)C2(C)C)C(=O)NCC(C)(C)O [Compound 52, (R)-2-(((5S,8R)-3-(2,6-difluorophenyl)-9,9-dimethyl-5,6,7,8-tetrahydro-5,8-methanocinnolin-8-yl)oxy)-N-(2-hydroxy-2-methylpropyl)butanamide] | 49.5 nM
CC1(C)[C@H]2CC[C@]1(Oc1ccc(=O)[nH]c1)c1nnc(-c3c(F)cccc3F)cc12 [Compound 33, 5-(((5S,8R)-3-(2,6-difluorophenyl)-9,9-dimethyl-5,6,7,8-tetrahydro-5,8-methanocinnolin-8-yl)oxy)pyridin-2(1H)-one] | 120 nM
CC[C@@H](O[C@@]12CC[C@@H](c3cc(-c4c(F)cccc4F)nnc31)C2(C)C)c1n[nH]c(CO)n1 [Compound 39, (3-((R)-1-(((5S,8R)-3-(2,6-difluorophenyl)-9,9-dimethyl-5,6,7,8-tetrahydro-5,8-methanocinnolin-8-yl)oxy)propyl)-1H-1,2,4-triazol-5-yl)methanol] | 827 nM
CC[C@@H](O[C@@]12CC[C@@H](c3cc(-c4c(F)cccc4F)nnc31)C2(C)C)C(=O)N1CC(CO)C1 [Compound 38, (R)-2-(((5S,8R)-3-(2,6-difluorophenyl)-9,9-dimethyl-5,6,7,8-tetrahydro-5,8-methanocinnolin-8-yl)oxy)-1-(3-(hydroxymethyl)azetidin-1-yl)butan-1-one] | 144 nM

— US9994551B2, “Pyridazine derivatives as RORc modulators” (Genentech, Inc., priority 2015, dated 2018)
